We go through one compound from patent US9862748B2, “Peptide compounds and methods of production and use thereof” (priority 2012, dated 2018).

This assay relates to P. aeruginosa (ATCC® 27853™). In words: Mouse model of Pseudomonas keratitis (CFU/eye). It is filed as in vivo, Pseudomonas aeruginosa in C57/BL mice. To be noted: 10 and 20 mg/ml groups together. The method, then: A circular wound (2 mm) was created on the mouse cornea by removing the epithelium and infecting the wound with 10^5 CFU of P. aeruginosa (ATCC® 27853™ (American Type Culture Collection, Manassas, Va.)). Infected wounds were treated with saline or saline containing indicated concentrations of peptide every 15 minutes for 2 hours, then every 30 minutes for 3 hours on the first day. Infected wounds were treated twice on the second day and once on the third day. Mice were killed at 48 hours post-infection, and the colony forming units per eye (CFU/eye) were quantified. The means are plotted and are representative of 5 to 9 mice per group. Mann Whitney test was performed for each group as compared to the saline control group.
For FIGS. 15-17, in vivo bactericidal activity of the peptides was also investigated using the standard Pseudomonas keratitis model in the mouse eye (FIGS. 15-17). Peptides 120-146QR-5RMP (SEQ ID NO: 32), 120-146WH (SEQ ID NO: 31), and 120-146WR (SEQ ID NO: 30) were applied topically at doses of 2, 5, 10, and 20 mg/ml to the wounded cornea that had been infected with 10^5 CFU of Pseudomonas aeruginosa. The efficacies of the peptides were compared to treatment with the vehicle control. Mice were euthanized at 48 hours post infection, and the CFU/eye were quantified.

Structures are written as SMILES. Square brackets hold non-standard residues; d marks the D form. Peptide text beside a SMILES is read from it. AEEA = NCCOCCOCC(=O)O

For the compound `CC(C)C[C@H](NC(=O)[C@H](CCCNC(=N)N)NC(=O)CNC(=O)CNC(=O)[C@H](CO)NC(=O)[C@H](CCCNC(=N)N)NC(=O)[C@H](CCC(N)=O)NC(=O)[C@H](CO)NC(=O)CNC(=O)[C@H](Cc1c[nH]c2ccccc12)NC(=O)CNC(=O)[C@H](C)NC(=O)[C@@H](NC(=O)[C@H](CCC(N)=O)NC(=O)[C@H](CS)NC(=O)[C@H](CCCNC(=N)N)NC(=O)[C@@H](NC(=O)CNC(=O)[C@H](CCCNC(=N)N)NC(=O)[C@H](CCCNC(=N)N)NC(=O)[C@H](CCCNC(=N)N)NC(=O)[C@H](CCCNC(=N)N)NC(=O)COCCOCCNC(=O)COCCOCCN)[C@@H](C)O)C(C)C)C(=O)N[C@@H](CO)C(=O)N[C@@H](CCCNC(=N)N)C(=O)N[C@@H](Cc1ccccc1)C(=O)N1CCC[C@H]1C(=O)N[C@@H](CCCNC(=N)N)C(=O)N[C@@H](Cc1ccccc1)C(=O)N[C@H](C(=O)N[C@@H](CC(N)=O)C(=O)N[C@H](C(=O)N[C@@H](CCCNC(=N)N)C(=O)O)C(C)C)C(C)C` [120-146QR-5RMP] (H-[AEEA][AEEA]RRRRGTRCQVAGWGSQRSGGRLSRFPRFVNVR-OH; N-terminus and C-terminus assumed), the “mice with no viable bacteria in the eye after treatment” value is “Six of the 10 mice”.
